Test results published in PubChem BioAssay AID1918934 (Molecular Pharmacology Branch, DTP, NCI, 2023).

Tested on: 292921-168-R-J2-PDC complex spheroid viability
Assay: Anticancer human tumor 292921-168-R-J2-PDC patient-derived pancreatic carcinoma cell line growth inhibition
Conditions: for IC50: curve of first compound; for viability, T/C: stronger effect = lower value
In short: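 Drug combinations with the LSD1 inhibitor iadademstat tested on tumor cells co-cultured as spheroids with endothelial cells and mesenchymal stem cells. Concentrations descended in half-log increments from clinical Cmax or 10 microM.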

[1] = second compound 0.1 µM, first compound 0.0316 µM
[2] = second compound 0.1 µM, first compound 0.1 µM
[3] = second compound 0.1 µM, first compound 0.316 µM
[4] = second compound 0.1 µM, first compound 1 µM
[5] = second compound 0.316 µM, first compound 0.0316 µM
[6] = second compound 0.316 µM, first compound 0.1 µM
[7] = second compound 0.316 µM, first compound 0.316 µM
[8] = second compound 0.316 µM, first compound 1 µM
[9] = second compound 1 µM, first compound 0.0316 µM
[10] = second compound 1 µM, first compound 0.1 µM
[11] = second compound 1 µM, first compound 0.316 µM
[12] = second compound 1 µM, first compound 1 µM
[13] = second compound 3.16 µM, first compound 0.0316 µM
[14] = second compound 3.16 µM, first compound 0.1 µM
[15] = second compound 3.16 µM, first compound 0.316 µM
[16] = second compound 3.16 µM, first compound 1 µM
[17] = second compound 10 µM, first compound 0.0316 µM
[18] = second compound 10 µM, first compound 0.1 µM
[19] = second compound 10 µM, first compound 0.316 µM
[20] = second compound 10 µM, first compound 1 µM
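Note: seven day compound exposure before luminescent viability read.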
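Throughout, for viability, T/C: 100% = DMSO vehicle control wells.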

Row | Compound | IC50 (second compound 0.1 µM) [nM] | IC50 (second compound 0.316 µM) [nM] | IC50 (second compound 1 µM) [nM] | IC50 (second compound 3.16 µM) [nM] | IC50 (second compound 10 µM) [nM] | viability, T/C [1] [%] | viability, T/C [2] [%] | viability, T/C [3] [%] | viability, T/C [4] [%] | viability, T/C [5] [%] | viability, T/C [6] [%] | viability, T/C [7] [%] | viability, T/C [8] [%] | viability, T/C [9] [%] | viability, T/C [10] [%] | viability, T/C [11] [%] | viability, T/C [12] [%] | viability, T/C [13] [%] | viability, T/C [14] [%] | viability, T/C [15] [%] | also measured
1 | COc1cc(Nc2ncc3c(n2)-c2ccc(Cl)cc2C(c2c(F)cccc2OC)=NC3)ccc1C(=O)O + NC1CCC(NC2CC2c2ccccc2)CC1 | < 3.16 | < 3.16 | < 3.16 | < 3.16 | < 3.16 | 33.5 | 28.6 | 22.4 | 16.5 | 32.5 | 24.6 | 22.5 | 14.3 | 34.8 | 29.3 | 18.3 | 14.3 | 29.4 | 25.9 | 21.5 | viability, T/C (second compound 0.1 µM, first compound 0.00316 µM): 32.5%; viability, T/C (second compound 0.1 µM, first compound 0.01 µM): 37.7%; viability, T/C (second compound 0.316 µM, first compound 0.00316 µM): 31.7%; viability, T/C (second compound 0.316 µM, first compound 0.01 µM): 39.2%; viability, T/C (second compound 1 µM, first compound 0.00316 µM): 35.6%; viability, T/C (second compound 1 µM, first compound 0.01 µM): 34.7%; viability, T/C (second compound 3.16 µM, first compound 0.00316 µM): 30.2%; viability, T/C (second compound 3.16 µM, first compound 0.01 µM): 32.6%; viability, T/C [16]: 14.9%; viability, T/C (second compound 10 µM, first compound 0.00316 µM): 28.3%; viability, T/C (second compound 10 µM, first compound 0.01 µM): 36.8%; viability, T/C [17]: 30.9%; viability, T/C [18]: 25.2%; viability, T/C [19]: 19.9%; viability, T/C [20]: 15.3%
2 | COc1ccc([C@@H](O)c2cc(-c3ncnc4cc(N5CCOCC5)ccc34)c(F)cc2Cl)nn1 + NC1CCC(NC2CC2c2ccccc2)CC1 | 205 | 191 | 102 | 101 | 35 | 61.8 | 61.3 | 42.7 | 30.4 | 61.1 | 57.7 | 44.4 | 26.2 | 59.9 | 50.4 | 38.1 | 24.9 | 50 | 53.7 | 40.4 | viability, T/C (second compound 0.1 µM, first compound 3.16 µM): 19.9%; viability, T/C (second compound 0.1 µM, first compound 10 µM): 11.7%; viability, T/C (second compound 0.316 µM, first compound 3.16 µM): 17.1%; viability, T/C (second compound 0.316 µM, first compound 10 µM): 11.8%; viability, T/C (second compound 1 µM, first compound 3.16 µM): 18.4%; viability, T/C (second compound 1 µM, first compound 10 µM): 11.2%; viability, T/C [16]: 27.1%; viability, T/C (second compound 3.16 µM, first compound 3.16 µM): 16.4%; viability, T/C (second compound 3.16 µM, first compound 10 µM): 10.7%; viability, T/C [17]: 48.6%; viability, T/C [18]: 50%; viability, T/C [19]: 36.2%; viability, T/C [20]: 28.2%; viability, T/C (second compound 10 µM, first compound 3.16 µM): 18.1%; viability, T/C (second compound 10 µM, first compound 10 µM): 11.6%
